Test results published in patent EP3338775B1, “USE OF BUTYLIDENEPHTHALIDE” (Everfront Biotech Inc., priority 2015, dated 2017).
Where “and” joins values, the source holds several entries; their conditions need not be identical. Equal entries are not always repeated.

Tests used:
[1] = test system: HNC-TIC-like oral stem cells (ALDH1^+CD44^+-1 cell line, ALDH1^+CD44^+-2 cell line); test: MTT viability assay on HNC-TIC-like oral stem cells; format: cell-based; conditions: BP 0, 25, 50 and 100 µg/ml for 24 hours; both cell lines; Figure 2
Procedure: NHOKs (normal human oral keratinocytes) and HNC-TIC (head and neck cancer-derived tumor initiating cell)-like oral stem cells (i.e., ALDH1^+CD44^+-1 cell line or ALDH1^+CD44^+-2 cell line) were treated with different concentrations (0, 25, 50 and 100 µg/ml) of BP for 24 hours, and then, an MTT assay was utilized to analyzed the viabilities of NHOKs and HNC-TIC-like oral stem cells (i.e., ALDH1^+CD44^+-1 cell line and ALDH1^+CD44^+-2 cell line).

[2] = test system: malignant glioma DBTRG cells; test: MTT cell viability assay on malignant glioma DBTRG cells; format: cell-based; conditions: 24-hour group
Procedure: Thereafter, a cell viability assay, MTT assay, was utilized to analyze the viabilities of brain CSCs ^CD133+ and malignant glioma DBTRG cells. […] The results are shown in Figure 1A and Figure 1B for 24-hour group and 48-hour group (i.e., the treatment for 24 hours and 48 hours) and in Table 1 for 24-hour group.

[3] = test system: HNC-TIC-like oral stem cells (ALDH1^+CD44^+-1 cell line or ALDH1^+CD44^+-2 cell line); test: Soft agar colony formation assay with HNC-TIC-like oral stem cells; format: cell-based; conditions: BP 0, 25 and 50 µg/ml for 24 hours
Procedure: In this research, a soft agar colony formation assay was used to investigate the effect of BP on inhibiting the tumor initiating activity of cancer stem cells. First, HNC-TIC-like oral stem cells (i.e., ALDH1^+CD44^+-1 cell line or ALDH1^+CD44^+-2 cell line) were treated with different concentrations (0, 25 and 50 µg/ml) of BP for 24 hours, and then, the treated cells of each group was separately seeded in the top agar [containing DMEM (Dulbecco's Modified Eagle's Medium medium), 10 % (v/v) Fetal Calf Serum (FCS) and 0.3 % (w/v) agar] (purchased from Sigma-Aldrich) at an initial cell number of 2×10^4. On the other hand, a six-well culture dish was coated with the bottom agar [containing DMEM, 10 % (v/v) FCS and 0.6 % (w/v) agar] (purchased from Sigma-Aldrich), 2 ml for each well. After the bottom agar was solidified, each group of the top agar (containing oral cancer stem cells) was respectively added onto the bottom agar in different wells of the dish, 2 ml for each well. […] Lastly, the bottom agar was stained with 0.005 % crystal violet, the number of colonies (with a diameter ≥100 µm) was counted over five fields per well with the use of a microscope, and those fields were photographed. The relative colony-forming ability of cells of each experimental group was calculated based on the result of the group treated with 0 µg/ml of BP.

[4] = test system: Axl and Gas6 proteins, Axl gene; test: Western blotting and RT-PCR of Axl and Gas6 in brain CSCs CD133+; format: cell-based; conditions: BP 0, 12.5, 25, 50, 62.5 and 75 µg/ml for 24 hours, Figures 9A, 9B
Procedure: It has been known that the expression of Axl (i.e., a receptor tyrosine kinase) is related to the ability of cancer stem cells in proliferation, anti-apoptosis, migration and invasion. Brain CSCs ^CD133+ was treated with different concentrations (0, 12.5, 25, 50, 62.5 and 75 µg/ml) of BP for 24 hours, and then, proteins and total RNA were extracted from the cells to conduct Western blotting and reverse transcriptase-polymerase chain reaction (RT-PCR) to determine the expressions of Axl and Gas6 (i.e., a ligand of Axl) proteins and the expression of Axl gene in the BP-treated brain CSCs ^CD133+.

[5] = test system: HNC-TIC-like oral stem cells (ALDH1^+CD44^+-1 cell line or ALDH1^+CD44^+-2 cell line); test: Transwell invasion assay with HNC-TIC-like oral stem cells; format: cell-based; conditions: BP 0, 25 and 50 µg/ml for 24 hours
Text: In this research, the effect of BP on inhibiting the migration and invasion of cancer stem cells was further investigated by a transwell invasion assay system (i.e., Transwell^○,R system, purchased from Corning, UK) with a polycarbonate filter membrane of 8-µm pore size (purchased from Coming, UK). First, the polycarbonate filter membrane was coated with Matrigel™ (purchased from BD Pharmingen, USA), and then, the coated membrane was placed in the lower chamber of the transwell invasion assay system. Then, the lower chamber was filled with 10% serum-containing medium. On the other hand, HNC-TIC-like oral stem cells (i.e., ALDH1^+CD44^+-1 cell line or ALDH1^+CD44^+-2 cell line) were treated with different concentrations (0, 25 and 50 µg/ml) of BP for 24 hours, and then, the treated cells of each group was cultured in the upper chamber which was filled with serum-free medium, at a cell density of 1×10^5 cells/100 µl for 24 hours. […] The invasion cancer cells of each group were counted and photographed over five visual fields of the membrane with the use of a 100-fold magnification under a microscope. The relative invasion ability of cells of each experimental group was calculated based on the result of the group treated with 0 µg/ml of BP.

[6] = test system: HNC-TIC-like oral stem cells stably transfected with GFP-tagged constructs; test: Tumor initiating activity animal experiment, subcutaneous GFP-tagged HNC-TIC-like oral stem cells in nude mice; format: in vivo, BALB/c nu/nu mice
Procedure: In this research, the effect of BP on inhibiting the tumor initiating activity of cancer stem cells was further investigated by animal experiments. First, 5-6 weeks old BALB/c nu/nu mice (weight 18-22 g) were bred under the same condition for 4 weeks. Then, HNC-TIC-like oral stem cells stably transfected with GFP-tagged constructs were injected (1×10^4 cells/0.1 mL/mouse) subcutaneously into the axilla of mice. After tumors reached 100 mm^3, mice were grouped into one control group and two experimental groups (three groups in total, n=3 per group). Then, one experimental group was injected daily with 100 mg/kg of BP for 6 days and another experimental group was injected daily with 200 mg/kg of BP for 6 days. The control group was injected daily with a vehicle (without BP) for 6 days. Ten days after the injection of BP or vehicle, the length and width were measured every 2 days (22 days in total), and then, the average tumor volume was calculated according to the following Formula 1. At the same time, the GFP signal (i.e., green fluorescence) of each group was detected and photographed by the IVIS Imaging system. The GFP intensity of each group was analyzed by Image-Pro Plus software. [length×width^2]/2((unit:mm)^3) [formula]

CCCC=C1OC(=O)c2ccccc21 [BP, butylidenephthalide]
viability of HNC-TIC-like oral stem cells [1]: decreased along with the increment in the concentration of BP
IC50 [2]: 400 µM and 75.3 µg/mL
number of colonies in the bottom agar ([3]; 4 weeks culture, Figure 15A): significantly decreased
relative colony-forming ability of cancer stem cells ([3]; relative to 0 µg/ml group, Figure 15B): decreased along with the increment in the concentration of BP
expressions of Axl and Gas6 proteins and the expression of Axl gene [4]: significantly decreased
number of cells on the polycarbonate filter membrane ([5]; Figure 11A): significantly reduced
relative invasion ability of cancer stem cells ([5]; relative to 0 µg/ml group, Figure 11B): decreased along with the increment in the concentration of BP
GFP intensity ([6]; 100 mg/kg and 200 mg/kg groups, injected daily for 6 days, compared to control group, Figures 16C, 16D): significantly decreased
tumor volume ([6]; 100 mg/kg and 200 mg/kg groups, injected daily for 6 days, over a period of time after BP injection, Figure 16B): decreased
body weight of mice ([6]; 100 mg/kg or 200 mg/kg of BP injected daily for 6 days, Figure 16A): didn't change significantly
